Experimental data from patent publication US11708348B2, “Protease inhibitors for treatment of coronavirus infections” (The Scripps Research Institute, priority 2021, dated 2023).
Like-named read-outs stand apart in the source and are kept apart here.

Test system: SARS-CoV-2 strain USA-WA1/2020
Experiment: microbe, parasite or virus in culture
Assay type: cell-based
Conditions: Severe acute respiratory syndrome coronavirus 2, HeLa-ACE2, 24 h, read-out: EC50, uM (Hela)
[1] = HeLa-ACE2 cells, SARS-CoV-2 infection, 24 h, class symbols
[2] = HeLa-ACE2 cells, SARS-CoV-2 infection, 24 h
[3] = HeLa-ACE2 cells, SARS-CoV-2 infection, 24 h, given as bound

Compound | EC50 [1] [µM] | EC50 [2] [µM] | further results
O=C(Nc1ccccc1F)C(=O)N1CCC[C@H]1C(=O)N[C@@H](C[C@@H]1CCNC1=O)C(=O)COc1c(F)c(F)cc(F)c1F [Compound 91, (S)-1-(2-((2-fluorophenyl)amino)-2-oxoacetyl)-N-((S)-3-oxo-1-((S)-2-oxopyrrolidin-3-yl)-4-(2,3,5,6-tetrafluorophenoxy)butan-2-yl)pyrrolidine-2-carboxamide] | 0.5 to 1 | – | –
O=C(N[C@@H](Cc1ccccc1)C(=O)N[C@@H](C[C@@H]1CCNC1=O)C(=O)COc1c(F)c(F)cc(F)c1F)c1cc2cc(F)ccc2[nH]1 [Compound 14, 5-fluoro-N-((S)-1-oxo-1-(((S)-3-oxo-1-((S)-2-oxopyrrolidin-3-yl)-4-(2,3,5,6-tetrafluorophenoxy)butan-2-yl)amino)-3-phenylpropan-2-yl)-1H-indole-2-carboxamide] | 0.05 to 0.2 | – | –
O=C(N[C@@H](CC1CCC1)C(=O)N[C@@H](C[C@@H]1CCNC1=O)C(=O)COC(F)(F)F)C(=O)NC12CC(F)(C1)C2 [Compound 565, N1-((S)-3-cyclobutyl-1-oxo-1-(((S)-3-oxo-1-((S)-2-oxopyrrolidin-3-yl)-4-(trifluoromethoxy)butan-2-yl)amino)propan-2-yl)-N2-(3-fluorobicyclo[1.1.1]-pentan-1-yl)oxalamide] | – | < 0.05 | –
CC(C)C[C@H](NC(=O)C(=O)Nc1ccccc1F)C(=O)N[C@@H](C[C@@H]1CCCNC1=O)C(=O)COC(F)(F)F [Compound 219, N^1-(2-fluorophenyl)-N^2—((S)-4-methyl-1-oxo-1-(((S)-3-oxo-1-((S)-2-oxopiperidin-3-yl)-4-(trifluoromethoxy)butan-2-yl)amino)pentan-2-yl)oxalamide] | < 0.05 | – | –
CC(C)(C)c1cccc(C(C)(C)C(=O)N2CC3(CC3)C[C@H]2C(=O)N[C@@H](C[C@@H]2CCNC2=O)C(=O)COC(F)(F)F)c1 [Compound 455, (S)-5-(2-(3-(tert-butyl)phenyl)-2-methylpropanoyl)-N-((S)-3-oxo-1-((S)-2-oxopyrrolidin-3-yl)-4-(trifluoromethoxy)butan-2-yl)-5-azaspiro[2.4]heptane-6-carboxamide] | – | 0.05 to 0.2 | –
CSCC[C@H](NC(=O)[C@H](CC(C)C)NC(=O)C(=O)Nc1ccccc1F)C(=O)COc1c(F)c(F)cc(F)c1F [Compound 654, N1-(2-fluorophenyl)-N2-((S)-4-methyl-1-(((S)-5-(methylthio)-2-oxo-1-(2,3,5,6-tetrafluorophenoxy)pentan-3-yl)amino)-1-oxopentan-2-yl)oxalamide] | – | 0.5 to 1 | –
CNC(=O)C(=O)N1CC2(CC2)C[C@H]1C(=O)N[C@@H](C[C@@H]1CCNC1=O)C(=O)COC(F)(F)F [Compound 676, (S)-5-(2-(methylamino)-2-oxoacetyl)-N-((S)-3-oxo-1-((S)-2-oxopyrrolidin-3-yl)-4-(trifluoromethoxy)butan-2-yl)-5-azaspiro[2.4]heptane-6-carboxamide] | – | 0.05 to 0.2 | –
Cn1ccc(NC(=O)C(=O)N2C[C@@H]3CCC[C@@H]3[C@H]2C(=O)N[C@@H](C[C@@H]2CCNC2=O)C(=O)COC(F)(F)F)n1 [Compound 534, (1S,3aR,6aS)-2-(2-((l-methyl-1H-pyrazol-3-yl)amino)-2-oxoacetyl)-N-((S)-3-oxo-1-((S)-2-oxopyrrolidin-3-yl)-4-(trifluoromethoxy)butan-2-yl)octahydrocyclo-penta[c]pyrrole-1-carboxamide] | – | 0.05 to 0.2 | –
CC1(C)CCc2onc(C(=O)N3CC4(CC4)C[C@H]3C(=O)N[C@@H](C[C@@H]3CCNC3=O)C(=O)COC(F)(F)F)c2C1 [Compound 568, (S)-5-(5,5-dimethyl-4,5,6,7-tetrahydro-benzo[d]isoxazole-3-carbonyl)-N-((S)-3-oxo-1-((S)-2-oxopyrrolidin-3-yl)-4-(trifluoromethoxy)butan-2-yl)-5-azaspiro[2.4]-heptane-6-carboxamide] | – | 0.05 to 0.2 | –
CC(C)C[C@H](NC(=O)C1(C)CCCO1)C(=O)N[C@@H](C[C@@H]1CCNC1=O)C(=O)COC(F)(F)F (stereo partly drawn) [Compound 214, 2-methyl-N-((S)-4-methyl-1-oxo-1-(((S)-3-oxo-1-((S)-2-oxopyrrolidin-3-yl)-4-(trifluoromethoxy)butan-2-yl)amino)pentan-2-yl)tetrahydrofuran-2-carboxamide] | 0.05 to 0.2 | – | –
CC(C)(C)[C@H](NC(=O)C(F)(F)F)C(=O)N1CC2(CC2)C[C@H]1C(=O)N[C@@H](C[C@@H]1CCNC1=O)C(=O)COC(F)(F)F [Compound 441, (S)-5-((S)-3,3-dimethyl-2-(2,2,2-trifluoroacetamido)butanoyl)-N—((S)-3-oxo-1-((S)-2-oxopyrrolidin-3-yl)-4-(trifluoromethoxy)butan-2-yl)-5-azaspiro[2.4]heptane-6-carboxamide] | – | – | EC50: < 0.05 µM
O=C1NCC[C@H]1C[C@H](NC(=O)[C@@H]1CC2(CC2)CN1C(=O)C(O)CCC(F)(F)F)C(=O)COC(F)(F)F (stereo partly drawn) [Compound 395, (6S)-N-((S)-3-oxo-1-((S)-2-oxopyrrolidin-3-yl)-4-(trifluoromethoxy)butan-2-yl)-5-(5,5,5-trifluoro-2-hydroxypentanoyl)-5-azaspiro[2.4]heptane-6-carboxamide] | 0.05 to 0.2 | – | –
O=C1NCC[C@H]1C[C@H](NC(=O)[C@@H]1CC2(CC2)CN1C(=O)[C@H](O)CF)C(=O)COC(F)(F)F [Compound 397, (S)-5-((S)-3-fluoro-2-hydroxypropanoyl)-N-((S)-3-oxo-1-((S)-2-oxopyrrolidin-3-yl)-4-(trifluoromethoxy)butan-2-yl)-5-azaspiro[2.4]heptane-6-carboxamide] | 0.05 to 0.2 | – | –
O=C(N[C@@H](C[C@@H]1CCNC1=O)C(=O)COC(F)(F)F)C1CCCCCN1C(=O)[C@@H](O)c1ccccc1 (stereo partly drawn) [Compound 768, l-((S)-2-hydroxy-2-phenylacetyl)-N-((S)-3-oxo-1-((S)-2-oxopyrrolidin-3-yl)-4-(trifluoromethoxy)butan-2-yl)azepane-2-carboxamide] | – | 0.05 to 0.2 | –
O=C1NCC[C@H]1C[C@H](NC(=O)[C@@H]1CC2(CC2)CN1C(=O)C(O)c1cc(F)c(F)c(F)c1)C(=O)COC(F)(F)F (stereo partly drawn) [Compound 399, (6S)-5-(2-hydroxy-2-(3,4,5-trifluorophenyl)acetyl)-N-((S)-3-oxo-1-((S)-2-oxopyrrolidin-3-yl)-4-(trifluoromethoxy)butan-2-yl)-5-azaspiro[2.4]heptane-6-carboxamide] | 0.05 to 0.2 | – | –
CC(C)C[C@H](NC(=O)c1csc(C(F)(F)F)n1)C(=O)N[C@@H](CC1CCNC1=O)C(=O)COC(F)(F)F (stereo partly drawn) [Compound 277, N-((2S)-4-methyl-1-oxo-1-(((2S)-3-oxo-1-(2-oxopyrrolidin-3-yl)-4-(trifluoromethoxy)butan-2-yl)amino)pentan-2-yl)-2-(trifluoromethyl)-thiazole-4-carboxamide] | < 0.05 | – | –
O=C1NCC[C@H]1C[C@H](NC(=O)[C@@H]1CC2(CC2)CN1C(=O)[C@H](O)CC(C(F)(F)F)C(F)(F)F)C(=O)COC(F)(F)F [Compound 744, (S)-N-((S)-3-oxo-1-((S)-2-oxopyrrolidin-3-yl)-4-(trifluoromethoxy)butan-2-yl)-5-((R)-5,5,5-trifluoro-2-hydroxy-4-(trifluoromethyl)pentanoyl)-5-azaspiro[2.4]heptane-6-carboxamide] | – | < 0.05 | –
CC(C)(NC(=O)C(=O)N1C[C@@H]2CCC[C@@H]2[C@H]1C(=O)N[C@@H](C[C@@H]1CCNC1=O)C(=O)COC(F)(F)F)C(F)(F)F [Compound 526, (1S,3aR,6aS)-N-((S)-3-oxo-1-((S)-2-oxopyrrolidin-3-yl)-4-(trifluoromethoxy)butan-2-yl)-2-(2-oxo-2-((1,1,1-trifluoro-2-methylpropan-2-yl)amino)acetyl)-octahydrocyclopenta[c]-pyrrole-1-carboxamide] | – | < 0.05 | –
CC1(NC(=O)C(=O)N2[C@H](C(=O)N[C@@H](C[C@@H]3CCNC3=O)C(=O)COC(F)(F)F)CCC23CC3)CC1 [Compound 541, (S)-4-(2-((l-methyl-cyclopropyl)amino)-2-oxoacetyl)-N-((S)-3-oxo-1-((S)-2-oxopyrrolidin-3-yl)-4-(trifluoromethoxy)butan-2-yl)-4-azaspiro-[2.4]heptane-5-carboxamide] | – | – | EC50 [3]: > 1 µM
CC1(C)C[C@@H](C(=O)N[C@@H](C[C@@H]2CCNC2=O)C(=O)COC(F)(F)F)N(C(=O)C(=O)NC2(C)CC2)C1 [Compound 540, (S)-4,4-dimethyl-1-(2-((1-methylcyclo-propyl)amino)-2-oxoacetyl)-N-((S)-3-oxo-1-((S)-2-oxopyrrolidin-3-yl)-4-(trifluoromethoxy)butan-2-yl)pyrrolidine-2-carboxamide] | – | – | EC50 [3]: > 1 µM
O=C(Nc1ccccc1F)C(=O)NC(CC1CCOCC1)C(=O)N[C@@H](C[C@@H]1CCNC1=O)C(=O)COC(F)(F)F (stereo partly drawn) [Compound 271, N1-(2-fluorophenyl)-N2-(1-oxo-1-(((S)-3-oxo-1-((S)-2-oxopyrrolidin-3-yl)-4-(trifluoromethoxy)butan-2-yl)amino)-3-(tetrahydro-2H-pyran-4-yl)propan-2-yl)oxalamide] | < 0.05 | – | –
CC(C)(C)NC(=O)C(=O)N1CC2(CCCC2)CC1C(=O)N[C@@H](C[C@@H]1CCNC1=O)C(=O)COC(F)(F)F (stereo partly drawn) [Compound 657, 2-(2-(tert-butylamino)-2-oxoacetyl)-N-((S)-3-oxo-1-((S)-2-oxopyrrolidin-3-yl)-4-(trifluoromethoxy)butan-2-yl)-2-azaspiro[4.4]nonane-3-carboxamide] | – | < 0.05 | –
CC(C)C[C@H](NC(=O)C(=O)Nc1ccccc1F)C(=O)N[C@@H](C[C@@H]1CCCNC1=O)C(=O)COc1c(F)c(F)cc(F)c1F [Compound 129, N1-(2-fluorophenyl)-N2-((S)-4-methyl-1-oxo-1-(((S)-3-oxo-1-((S)-2-oxopiperidin-3-yl)-4-(2,3,5,6-tetrafluorophenoxy)butan-2-yl)amino)pentan-2-yl)oxalamide] | < 0.05 | – | –
